Test results: patent publication US9446092B2, “Use of a neurofilament peptide for the treatment of glioma” (UNIVERSITE D'ANGERS, priority 2009, dated 2016)
Ends that are not written are not given here.

Assays:
[1] = system: primary human glioblastoma cells; assay: MTS assay on primary glioblastoma cells isolated after surgery; type: cell-based; settings: 40 nM, 72 h
Protocol: Primary human glioblastoma cells obtained from tissue samples extracted in human brains during surgery are put in culture in a DMEM medium containing glucose, L-glutamine, 10% fetal calf serum, […] (Sigma). Cells were plated (20 000 cells per cm^2) in MW96 and let grow at 37° C. in a humidified incubator gassed with 5% CO2. The peptides and/or drugs are added 48 hours after their plating.
(§1) The effects of peptides on the proliferation of glioma cells or astrocytes were evaluated by the MTS cytotoxicity assay and by counting directly the number of cells. For the MTS assay (Promega), 500 cells were seeded in 96-well plates, incubated at 37° C. for 24 hours, and treated by the peptide at the indicated concentrations for 24, 48 and 72 hours, or with vehicle (PBS or water). Media and peptides were replaced daily. Peptides were prepared in DMEM, and paclitaxel was dissolved in DMSO at a concentration of 2 mM and further diluted into DMEM. Viability was also determined by trypan blue staining. For manual counts, cells were treated with 0.25% trypsin/0.53 mM EDTA, centrifuged, and counted with a hemacytometer following addition of trypan blue dye. At each time, 3 to 6 wells per treatment were counted.

rat astrocytes = assay: BrdU incorporation (cell proliferation); type: cell-based; settings: 100 μM, 72 hours
Protocol: (§2) To assess cell proliferation, 5-bromodeoxyuridine (BrdU) immunohistochemistry was used. Cells were platted on coverslips and cultured in media containing biotinylated peptides (100 μM) for 72 hours, and incubated during 4 hours in the presence of 1 mg/mL BrdU (Sigma). Cells were then washed in PBS, fixed in 3% paraformaldehyde for 10 min and permeabilized with 1% Triton X-100 in PBS for 10 min. Cells were acidified to denature the DNA (2 N HCl, 10 min), neutralized (0.1 M sodium borate, 10 min) and then rinsed extensively in PBS. After blocking with 10% NGS (10 min) the cells were labeled with monoclonal anti-BrdU antibody (1/400) followed by Alexa 568 nm anti-mouse antibody (1/200). Nuclei were stained with 4′6-diaminido-2-phenylindole (DAPI; Sigma). […] Images were acquired with a CoolSNAP HQ2 camera and analyzed with Metamorph 7.1.7.0. software. Minimums of 200 cells were scored for BrdU incorporation, and experiments were repeated at least three times.

rat primary astrocytes = assay: Immunocytochemistry: peptide penetration and microtubule network; type: cell-based; settings: 10 μM, 6 h
Protocol: Rat primary astrocytes were obtained from cultures of cerebral cortex as originally described (McCarthy and de Vellis, 1980). Briefly, the cerebral cortex was dissected from newborn rats and cells were recovered after tissue homogenization, trypsination, and centrifugation. They were grown during 3 weeks in DMEM media with glucose and L-glutamine (Lonza France), containing 10% fetal calf serum (Lonza France), 1% penicillin/streptomycin (Sigma) in humidified incubator gassed with 5% CO2 (37° C.).
Cells were plated on coverslips and cultured in media containing biotinylated peptides (10 μM) for 6 hours. Following PBS washing, the cells were fixed for 10 min in 4% paraformaldehyde, and washed 3 times in PBS. They were then incubated for 10 min in a 0.5% triton X-100 permeabilization solution, washed 3 times in PBS before incubation in a blocking solution (5% BSA) for 15 min. […]
(§3) Observations were carried out with an Olympus confocal microscope (BX50) using Fluoview.3.1. […] Images were acquired with a CoolSNAP-HQ2 camera and analyzed with Metamorph 7.1.7.0. software. Cells that are positive for peptide staining and cells with destroyed microtubule network were counted. Experiments on each cell type were repeated at least three times, and minimums of 200 cells were analyzed for each experiment.

F98 cells [2] = assay: BrdU incorporation (cell proliferation); type: cell-based, rat; settings: 100 μM, 72 hours
Protocol: as §2

9L cells [3] = assay: BrdU incorporation (cell proliferation); type: cell-based, rat; settings: 100 μM, 72 hours
Protocol: as §2

rat neurons = assay: Immunocytochemistry: peptide penetration and microtubule network; type: cell-based; settings: 10 μM, 6 h
Protocol: Hippocampal neuronal cultures were prepared from newborn rat brains according to Ray et al. 1993 and Kaech and Banker 2006. Briefly, the hippocampi of animals younger than 2 days were recovered, minced and digested in 0.01% trypsin for one hour at 37° C. Dissociated cells were plated on coverslips precoated with 5 μg/ml poly-1-lysine and 7 μg/ml collagen at densities of 2×10^5/ml and incubated at 37° C. with a 5% CO2 atmosphere. Twenty-four hours later, the plating solution was replaced by B-27 neurobasal medium, and the second day cytosine arabinoside (20 μM) was added to eliminate non-neural cells. Experiments were performed 7 days after plating.
Cells were plated on coverslips and cultured in media containing biotinylated peptides (10 μM) for 6 hours. Following PBS washing, the cells were fixed for 10 min in 4% paraformaldehyde, and washed 3 times in PBS. […]
as §3

glioma cells = assay: Peptide uptake by glioma cells: temperature/energy dependence and sequence specificity; type: cell-based
Protocol: To evaluate the internalization of fluorescein-labeled NFL-TBS40-63 peptide by FACS, glioma cells or astrocytes were seeded in 35 mm dishes and cultured for 1 hour at 37° C. in media containing fluorescein-labeled NFL-TBS40-63 peptide at increasing concentrations or with vehicle (PBS). Cells were trypsinized, washed twice in cold PBS before incubation with trypsin (1 mg/mL) during 15 min at 37° C. To investigate a possible energy-dependant mechanism for the uptake of the peptide, cells were incubated at 4° C. with 20 μM fluorescein-labeled NFL-TBS2 peptide (after 15 min of 4° C. preincubation), or with 10 mM sodium azide in the presence of 6 mM 2-deoxy-D-glucose for 1 hour to deplete cellular ATP before addition of 20 μM fluorescence-labeled NFL-TBS2 peptide. Cells were then washed once, resuspended in 500 μl containing 50 μg/mL propidium iodide (Sigma, Saint-Quentin Fallavier, France), and analyzed with FACScalibur flow cytometer. Experiment on each cell type was repeated three times. 20,000 events per sample were analyzed in each experiment.

9L glioma cells [4] = assay: Immunocytochemistry: peptide penetration and microtubule network; type: cell-based, rat; settings: 10 μM, 6 h
Protocol: (§4) Cells were plated on coverslips and cultured in media containing biotinylated peptides (10 μM) for 6 hours. Following PBS washing, the cells were fixed for 10 min in 4% paraformaldehyde, and washed 3 times in PBS. They were then incubated for 10 min in a 0.5% triton X-100 permeabilization solution, washed 3 times in PBS before incubation in a blocking solution (5% BSA) for 15 min. Glioma cells and astrocytes were incubated overnight at 4° C. with mouse anti-B-tubulin antibody (Sigma) 1/200, and neurons with mouse anti-Bill-tubulin antibody 1/200. Tubulin and biotinylated peptides were localized using respectively Alexa 568 nm anti-mouse antibody and streptavidin Alexa 488 nm (Molecular Probes) 1/200 for 1 hour, followed by washing in PBS. The preparations were counterstained with 3 μM 4′6-diaminido-2-phenylindole (DAPI; Sigma) for 5 min, and washed twice with PBS. Coverslips were mounted with an antifading solution.
(§5) Observations were carried out with an Olympus confocal microscope (BX50) using Fluoview.3.1. Software or a Leica DMI6000 inverted microscope. Images were acquired with a CoolSNAP-HQ2 camera and analyzed with Metamorph 7.1.7.0. software. Cells that are positive for peptide staining and cells with destroyed microtubule network were counted. Experiments on each cell type were repeated at least three times, and minimums of 200 cells were analyzed for each experiment.

F98 glioma cells [5] = assay: as above; type: cell-based, rat; settings: 10 μM, 6 h
Protocol: as §4, §5

F98 cells [6] = assay: Cell death analysis by flow cytometry (Annexin V / PI); type: cell-based, rat; settings: 100 μM, 72 hours, Annexin V/PI FACS
Protocol: (§6) To detect possible apoptotic processes, cells were seeded in 35 mm dishes and cultured in media containing biotinylated peptides (100 μM) or PBS alone for 72 hours. Paclitaxel (40 nM) was used as a positive control to induce apoptosis (Terzis et al., 1997). Cells were then trypsinized, washed in cold PBS, and stained with Annexin V-FITC (BD Pharmingen) in Annexin buffer for 15 min at room temperature. Finally, they were counterstained with 50 μg/mL propidium iodide (Sigma) and analyzed with a FACSCalibur flow cytometer. Experiment on each cell type was repeated three times. 20,000 events per sample were analyzed in each experiment.

9L cells [7] = assay: as above; type: cell-based, rat; settings: 100 μM, 72 hours, Annexin V/PI FACS
Protocol: as §6

primary astrocytes = assay: as above; type: cell-based, rat; settings: 100 μM, 72 hours, Annexin V/PI FACS
Protocol: as §6

9L glioma cells [8] = assay: MTS cytotoxicity assay; type: cell-based, rat; settings: 100 μM, 72 hours
Protocol: as §1

F98 glioma cells [9] = assay: MTS cytotoxicity assay; type: cell-based, rat; settings: 100 μM, 72 hours
Protocol: as §1

[10] = Non tumor-bearing (control) rats, intracerebral peptide injection; type: in vivo, rat

Question: With `CC(=O)O[C@H]1C(=O)[C@@]2(C)[C@H]([C@H](OC(=O)c3ccccc3)[C@]3(O)C[C@H](OC(=O)[C@H](O)[C@@H](NC(=O)c4ccccc4)c4ccccc4)C(C)=C1C3(C)C)[C@]1(OC(C)=O)CO[C@@H]1C[C@@H]2O` [taxol, paclitaxel] as the compound, how does the “cell survival compared with NFL-TBS40-63 peptide (MTS)” value [1] read?
Answer: at the same level

Question: For “NFL-SCR: similarly labeled scrambled peptide, control scrambled sequence of NFL-TBS40-63 (SLGSPSSSVRASYSSSRSYVYSSS; also: N-terminal label (biotin or carboxyfluorescein), not given here for this peptide)”, which “effect on proliferation (BrdU incorporation)” value (rat astrocytes) is on record?
Answer: has no effect

Question: What about the “cells with altered microtubule network” value (rat primary astrocytes) of the same compound?
Answer: didn't alter the microtubule network

Question: And the “inhibition of BrdU incorporation” value (F98 cells [2])?
Answer: has no effect

Question: What about the “inhibition of BrdU incorporation” value (9L cells [3]) of the same compound?
Answer: has no effect

Question: And the “cells with altered microtubule network” value (rat neurons)?
Answer: didn't alter the microtubule network

Question: And the “internalization into glioma cells” value (glioma cells)?
Answer: absence of internalization

Question: What about the “total cells with altered microtubule network (spherical shape, aggregated tubulin)” value (9L glioma cells [4]) of the same compound?
Answer: didn't alter the microtubule network

Question: And the “total cells with altered microtubule network (spherical shape, aggregated tubulin)” value (F98 glioma cells [5])?
Answer: didn't alter the microtubule network

Question: What about the apoptotic response (F98 cells [6]) of the same compound?
Answer: has no effect

Question: And the apoptotic response (9L cells [7])?
Answer: has no effect

Question: And the apoptotic response (primary astrocytes)?
Answer: has no effect

Question: With YSSYSAPVSSSLSVRRSYSSSSGS [NFL-TBS40-63] as the compound, how does the “reduction of cell viability (MTS)” value (9L glioma cells [8]) read?
Answer: 30.0%±4.4

Question: What about the “reduction of cell viability (MTS)” value (F98 glioma cells [9]) of the same compound?
Answer: 60.8%±2.8

Question: And the “cellular defects in normal brain” value ([10]; injected in normal brain)?
Answer: no major cellular defects

Question: And the “clinical signs of distress (weight loss, hunched posture)” value ([10]; non tumor-bearing rats treated with the peptide)?
Answer: no clinical signs of distress

Question: And the “elimination of the peptide from normal brain” value ([10]; same procedure, days 16, 24 or 30)?
Answer: rapidly eliminated and was not detectable at these time points
